Format in all cases: functional
For experiment [1], the target named is 3-phosphoinositide-dependent protein kinase 1 (Homo sapiens, UniProt O15530).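 Also: value comes from the Navigating the Kinome panel, PDPK1 member.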
A further experiment concerns the target Ephrin type-A receptor 2 (Homo sapiens, UniProt P29317).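 Also: EPHA2 tested as one member of a kinome-wide kinase panel.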
Experiment [2] addresses T1, Tyrosine-protein kinase JAK3 (Homo sapiens, UniProt P52333).
T1 sequence (P52333 whole entry): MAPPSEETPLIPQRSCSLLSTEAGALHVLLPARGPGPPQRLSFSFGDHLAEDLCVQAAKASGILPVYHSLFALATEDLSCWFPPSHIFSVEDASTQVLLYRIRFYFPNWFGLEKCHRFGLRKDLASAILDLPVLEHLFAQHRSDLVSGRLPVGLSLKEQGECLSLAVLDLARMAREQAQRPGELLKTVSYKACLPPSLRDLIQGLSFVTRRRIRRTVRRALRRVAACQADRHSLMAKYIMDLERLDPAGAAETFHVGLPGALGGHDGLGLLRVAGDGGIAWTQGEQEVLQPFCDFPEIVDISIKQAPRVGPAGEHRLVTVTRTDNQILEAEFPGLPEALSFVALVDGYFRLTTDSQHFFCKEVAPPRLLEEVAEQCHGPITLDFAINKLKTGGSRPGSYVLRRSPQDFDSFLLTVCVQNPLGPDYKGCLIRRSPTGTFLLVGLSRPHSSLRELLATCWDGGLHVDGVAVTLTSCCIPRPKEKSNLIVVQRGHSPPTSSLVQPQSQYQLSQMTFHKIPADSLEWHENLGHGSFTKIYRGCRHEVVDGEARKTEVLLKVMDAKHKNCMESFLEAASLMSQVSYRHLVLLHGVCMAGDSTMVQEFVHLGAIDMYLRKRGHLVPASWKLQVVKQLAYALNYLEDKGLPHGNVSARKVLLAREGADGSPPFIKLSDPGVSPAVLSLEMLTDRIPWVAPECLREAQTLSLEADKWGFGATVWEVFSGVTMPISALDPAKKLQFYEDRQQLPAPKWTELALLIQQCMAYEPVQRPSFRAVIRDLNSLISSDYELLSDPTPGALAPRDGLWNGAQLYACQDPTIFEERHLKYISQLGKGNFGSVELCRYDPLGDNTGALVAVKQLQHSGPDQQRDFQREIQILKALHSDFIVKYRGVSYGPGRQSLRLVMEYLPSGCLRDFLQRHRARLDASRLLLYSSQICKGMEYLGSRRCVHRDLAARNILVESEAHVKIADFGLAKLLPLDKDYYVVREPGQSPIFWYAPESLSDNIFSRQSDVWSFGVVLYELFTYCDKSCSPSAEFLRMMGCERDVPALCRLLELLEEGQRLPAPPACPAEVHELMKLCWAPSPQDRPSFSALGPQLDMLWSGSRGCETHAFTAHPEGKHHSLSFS

In experiment [3] the target is Tyrosine-protein kinase Lyn (Homo sapiens, UniProt P07948).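 Also: lyn as one member of a kinase panel.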
Experiment [4] deals with Proto-oncogene tyrosine-protein kinase Src (Homo sapiens, UniProt P12931).
The target of experiment [5] is Serine/threonine-protein kinase Nek2 (Homo sapiens, UniProt P51955).
For experiment [6], the target named is Macrophage colony-stimulating factor 1 receptor (Homo sapiens, UniProt P07333).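 Also: value comes from the Navigating the Kinome screening panel, CSF1R member.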
Experiment [7] addresses Tyrosine-protein kinase JAK2 (Homo sapiens, UniProt O60674).
The target in experiment [8] is Non-receptor tyrosine-protein kinase TYK2 (Homo sapiens, UniProt P29597).
Experiment [9] deals with T2, Interleukin-1 receptor-associated kinase 4 (Homo sapiens, UniProt Q9NWZ3).
T2 sequence (Q9NWZ3 whole entry): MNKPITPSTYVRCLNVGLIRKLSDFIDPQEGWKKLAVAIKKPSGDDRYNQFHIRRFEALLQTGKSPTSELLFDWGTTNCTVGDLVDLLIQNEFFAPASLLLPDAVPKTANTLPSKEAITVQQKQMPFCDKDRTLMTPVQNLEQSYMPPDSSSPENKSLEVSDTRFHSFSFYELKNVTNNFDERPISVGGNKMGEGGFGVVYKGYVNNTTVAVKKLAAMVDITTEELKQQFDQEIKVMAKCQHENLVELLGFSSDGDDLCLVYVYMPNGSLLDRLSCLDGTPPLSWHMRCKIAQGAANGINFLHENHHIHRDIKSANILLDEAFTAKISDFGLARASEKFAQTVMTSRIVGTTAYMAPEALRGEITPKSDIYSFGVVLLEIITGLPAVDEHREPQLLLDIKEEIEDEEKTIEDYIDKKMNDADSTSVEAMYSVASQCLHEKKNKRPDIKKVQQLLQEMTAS

For experiment [10], the target named is Casein kinase I isoform delta (Homo sapiens, UniProt P48730).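 Also: measured as one member (CSNK1D) of a kinome panel.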
The target in experiment [11] is Hepatocyte growth factor receptor (Homo sapiens, UniProt P08581).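 Also: kinase panel profiling across the kinome, with MET as the panel member.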
Experiment [12] has as its target MAP/microtubule affinity-regulating kinase 3 (Homo sapiens, UniProt P27448).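 Also: MARK3 affinity measured as one member of a kinome panel.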
For experiment [13], the target named is Vascular endothelial growth factor receptor 3 (Homo sapiens, UniProt P35916).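 Also: value from a kinome-wide profiling panel, with FLT4 as the panel member.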
Experiment [14] has as its target Calcium/calmodulin-dependent protein kinase type 1 (Homo sapiens, UniProt Q14012).
Experiment [15] deals with Casein kinase II subunit alpha (Homo sapiens, UniProt P68400).
For experiment [16], the target named is High affinity nerve growth factor receptor (Homo sapiens, UniProt P04629).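 Also: NTRK1 tested as one member of a kinome-wide profiling panel.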
For experiment [17], the target named is Serine/threonine-protein kinase PLK4 (Homo sapiens, UniProt O00444).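 Also: PLK4 measured as one member of a kinome-wide kinase profiling panel.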
Experiment [18] concerns the target 5'-AMP-activated protein kinase catalytic subunit alpha-1 (Homo sapiens, UniProt Q13131).
The target of experiment [19] is Cyclin-dependent kinase 5 (Homo sapiens, UniProt Q00535).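 Also: CDK5 measured as one member of a kinase profiling panel.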
Experiment [20] has as its target MAP kinase-activated protein kinase 2 (Homo sapiens, UniProt P49137).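 Also: measured as one member of a kinome-wide kinase panel.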
The target of experiment [21] is Serine/threonine-protein kinase D2 (Homo sapiens, UniProt Q9BZL6).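 Also: measured against PRKD2 as one member of a kinome-wide kinase profiling panel.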

Molecules are shown by their SMILES. Active and inactive are the calls of the source.

3-phosphoinositide-dependent protein kinase 1, sequence (O15530 whole entry): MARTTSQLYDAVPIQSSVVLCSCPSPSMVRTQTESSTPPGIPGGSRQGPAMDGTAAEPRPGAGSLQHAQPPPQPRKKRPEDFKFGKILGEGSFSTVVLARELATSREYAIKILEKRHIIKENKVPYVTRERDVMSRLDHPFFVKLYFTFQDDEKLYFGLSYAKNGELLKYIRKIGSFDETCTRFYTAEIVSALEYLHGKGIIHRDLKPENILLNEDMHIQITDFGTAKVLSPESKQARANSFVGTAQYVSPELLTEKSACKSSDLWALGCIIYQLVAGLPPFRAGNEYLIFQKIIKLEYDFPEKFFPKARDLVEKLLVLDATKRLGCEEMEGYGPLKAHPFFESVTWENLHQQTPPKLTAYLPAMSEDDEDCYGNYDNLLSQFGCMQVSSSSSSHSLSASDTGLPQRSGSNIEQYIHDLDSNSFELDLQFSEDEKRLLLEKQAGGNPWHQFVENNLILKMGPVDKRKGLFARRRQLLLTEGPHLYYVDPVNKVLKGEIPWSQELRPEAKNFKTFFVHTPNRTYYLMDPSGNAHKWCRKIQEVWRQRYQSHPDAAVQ
Macrophage colony-stimulating factor 1 receptor, sequence (P07333 whole entry): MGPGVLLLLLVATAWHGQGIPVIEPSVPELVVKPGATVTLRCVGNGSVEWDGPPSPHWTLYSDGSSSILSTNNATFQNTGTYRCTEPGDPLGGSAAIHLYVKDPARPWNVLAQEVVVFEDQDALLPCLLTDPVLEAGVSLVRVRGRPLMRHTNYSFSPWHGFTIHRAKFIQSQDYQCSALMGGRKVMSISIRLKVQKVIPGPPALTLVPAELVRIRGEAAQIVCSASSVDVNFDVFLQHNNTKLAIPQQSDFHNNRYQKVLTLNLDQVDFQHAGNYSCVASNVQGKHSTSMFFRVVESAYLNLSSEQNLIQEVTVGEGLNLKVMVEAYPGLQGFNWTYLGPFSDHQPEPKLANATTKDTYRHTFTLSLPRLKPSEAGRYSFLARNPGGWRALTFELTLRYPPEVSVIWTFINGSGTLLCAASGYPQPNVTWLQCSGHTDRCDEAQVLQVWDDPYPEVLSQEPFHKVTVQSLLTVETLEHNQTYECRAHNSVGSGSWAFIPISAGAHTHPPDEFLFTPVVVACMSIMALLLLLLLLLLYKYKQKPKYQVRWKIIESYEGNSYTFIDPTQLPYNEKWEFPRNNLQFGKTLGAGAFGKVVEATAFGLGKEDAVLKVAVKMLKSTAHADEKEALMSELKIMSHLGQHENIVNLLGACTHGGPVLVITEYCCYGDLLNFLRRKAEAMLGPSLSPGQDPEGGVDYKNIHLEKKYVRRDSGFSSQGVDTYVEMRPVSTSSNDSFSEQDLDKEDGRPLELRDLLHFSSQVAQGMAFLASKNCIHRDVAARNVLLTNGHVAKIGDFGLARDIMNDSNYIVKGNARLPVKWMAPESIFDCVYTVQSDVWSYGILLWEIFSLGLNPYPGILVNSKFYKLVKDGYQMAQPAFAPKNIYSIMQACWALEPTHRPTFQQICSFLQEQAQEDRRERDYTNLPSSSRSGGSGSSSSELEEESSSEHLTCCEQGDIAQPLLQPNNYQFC
MAP kinase-activated protein kinase 2, sequence (P49137 whole entry): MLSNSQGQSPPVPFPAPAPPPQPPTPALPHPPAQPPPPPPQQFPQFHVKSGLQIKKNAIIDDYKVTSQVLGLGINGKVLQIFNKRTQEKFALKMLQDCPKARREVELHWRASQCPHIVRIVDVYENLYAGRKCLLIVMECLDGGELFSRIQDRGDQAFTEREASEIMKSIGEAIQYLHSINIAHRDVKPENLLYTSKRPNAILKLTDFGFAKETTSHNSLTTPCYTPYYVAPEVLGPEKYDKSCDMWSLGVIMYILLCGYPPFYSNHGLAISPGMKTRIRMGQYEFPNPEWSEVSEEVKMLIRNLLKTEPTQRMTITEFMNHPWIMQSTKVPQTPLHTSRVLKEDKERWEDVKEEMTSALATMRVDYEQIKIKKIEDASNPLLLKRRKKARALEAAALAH
Serine/threonine-protein kinase PLK4, sequence (O00444 whole entry): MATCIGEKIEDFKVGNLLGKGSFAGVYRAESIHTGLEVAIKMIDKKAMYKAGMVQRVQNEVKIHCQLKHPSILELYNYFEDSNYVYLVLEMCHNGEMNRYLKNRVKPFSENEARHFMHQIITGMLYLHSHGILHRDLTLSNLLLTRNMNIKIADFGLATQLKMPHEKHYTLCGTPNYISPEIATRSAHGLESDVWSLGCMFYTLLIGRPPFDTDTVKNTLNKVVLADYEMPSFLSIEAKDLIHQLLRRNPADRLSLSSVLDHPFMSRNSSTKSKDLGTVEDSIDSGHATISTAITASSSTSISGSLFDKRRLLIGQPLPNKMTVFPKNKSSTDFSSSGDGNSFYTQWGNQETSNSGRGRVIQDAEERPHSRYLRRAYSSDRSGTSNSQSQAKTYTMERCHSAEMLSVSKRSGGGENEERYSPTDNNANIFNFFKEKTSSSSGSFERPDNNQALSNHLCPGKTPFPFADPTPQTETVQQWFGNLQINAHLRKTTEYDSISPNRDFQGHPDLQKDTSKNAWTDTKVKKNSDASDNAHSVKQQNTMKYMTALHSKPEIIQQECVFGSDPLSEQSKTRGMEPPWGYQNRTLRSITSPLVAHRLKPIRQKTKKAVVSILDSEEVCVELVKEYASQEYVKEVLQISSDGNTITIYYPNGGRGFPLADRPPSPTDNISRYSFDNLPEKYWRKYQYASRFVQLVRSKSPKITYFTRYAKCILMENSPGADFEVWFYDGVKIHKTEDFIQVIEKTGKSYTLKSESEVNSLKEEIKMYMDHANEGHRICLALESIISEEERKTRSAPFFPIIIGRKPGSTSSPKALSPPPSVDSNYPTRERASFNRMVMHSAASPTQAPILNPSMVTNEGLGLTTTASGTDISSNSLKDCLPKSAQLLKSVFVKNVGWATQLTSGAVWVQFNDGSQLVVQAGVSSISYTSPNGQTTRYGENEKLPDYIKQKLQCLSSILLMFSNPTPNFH
Cyclin-dependent kinase 5, sequence (Q00535 whole entry): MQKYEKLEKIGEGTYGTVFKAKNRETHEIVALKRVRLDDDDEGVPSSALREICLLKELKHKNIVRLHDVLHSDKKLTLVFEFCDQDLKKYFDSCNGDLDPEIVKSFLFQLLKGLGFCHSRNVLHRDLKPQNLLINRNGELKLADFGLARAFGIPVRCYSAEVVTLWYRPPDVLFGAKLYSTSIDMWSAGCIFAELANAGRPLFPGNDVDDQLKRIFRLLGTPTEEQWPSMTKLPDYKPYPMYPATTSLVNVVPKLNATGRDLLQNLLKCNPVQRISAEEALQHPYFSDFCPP
Ephrin type-A receptor 2, sequence (P29317 whole entry): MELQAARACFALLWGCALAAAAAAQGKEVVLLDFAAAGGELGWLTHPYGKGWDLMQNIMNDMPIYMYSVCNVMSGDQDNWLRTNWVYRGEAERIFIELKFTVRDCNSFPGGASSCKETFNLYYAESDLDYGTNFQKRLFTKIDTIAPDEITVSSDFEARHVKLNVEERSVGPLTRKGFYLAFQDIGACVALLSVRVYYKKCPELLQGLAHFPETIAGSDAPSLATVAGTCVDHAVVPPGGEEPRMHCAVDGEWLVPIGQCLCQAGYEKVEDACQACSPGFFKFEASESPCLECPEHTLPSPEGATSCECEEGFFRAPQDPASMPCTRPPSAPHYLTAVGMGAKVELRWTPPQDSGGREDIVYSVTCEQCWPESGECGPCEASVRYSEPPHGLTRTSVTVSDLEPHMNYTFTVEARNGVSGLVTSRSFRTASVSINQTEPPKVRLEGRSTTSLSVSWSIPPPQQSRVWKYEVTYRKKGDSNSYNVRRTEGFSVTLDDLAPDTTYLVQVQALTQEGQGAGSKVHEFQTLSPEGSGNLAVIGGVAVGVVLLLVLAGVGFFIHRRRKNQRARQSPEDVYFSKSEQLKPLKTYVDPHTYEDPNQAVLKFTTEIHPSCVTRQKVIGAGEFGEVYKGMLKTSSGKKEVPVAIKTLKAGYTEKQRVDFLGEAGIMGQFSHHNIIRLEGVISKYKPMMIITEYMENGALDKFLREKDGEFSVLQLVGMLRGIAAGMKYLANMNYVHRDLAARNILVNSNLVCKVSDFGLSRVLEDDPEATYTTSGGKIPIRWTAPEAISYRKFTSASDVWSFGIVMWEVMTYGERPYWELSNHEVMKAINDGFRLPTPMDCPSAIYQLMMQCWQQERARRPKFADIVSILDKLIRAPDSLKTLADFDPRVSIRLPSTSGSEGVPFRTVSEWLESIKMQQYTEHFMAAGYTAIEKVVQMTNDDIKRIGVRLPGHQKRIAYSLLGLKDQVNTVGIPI
Calcium/calmodulin-dependent protein kinase type 1, sequence (Q14012 whole entry): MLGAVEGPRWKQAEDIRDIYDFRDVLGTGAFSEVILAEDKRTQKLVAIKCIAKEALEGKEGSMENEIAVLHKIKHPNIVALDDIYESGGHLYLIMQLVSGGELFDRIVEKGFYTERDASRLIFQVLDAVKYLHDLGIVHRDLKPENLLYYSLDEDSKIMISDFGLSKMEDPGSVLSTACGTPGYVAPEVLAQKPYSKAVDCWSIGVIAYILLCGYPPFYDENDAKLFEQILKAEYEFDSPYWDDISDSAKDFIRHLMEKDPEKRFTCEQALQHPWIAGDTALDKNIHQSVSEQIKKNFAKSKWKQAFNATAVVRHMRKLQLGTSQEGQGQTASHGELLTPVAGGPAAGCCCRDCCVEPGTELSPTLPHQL
Casein kinase II subunit alpha, sequence (P68400 whole entry): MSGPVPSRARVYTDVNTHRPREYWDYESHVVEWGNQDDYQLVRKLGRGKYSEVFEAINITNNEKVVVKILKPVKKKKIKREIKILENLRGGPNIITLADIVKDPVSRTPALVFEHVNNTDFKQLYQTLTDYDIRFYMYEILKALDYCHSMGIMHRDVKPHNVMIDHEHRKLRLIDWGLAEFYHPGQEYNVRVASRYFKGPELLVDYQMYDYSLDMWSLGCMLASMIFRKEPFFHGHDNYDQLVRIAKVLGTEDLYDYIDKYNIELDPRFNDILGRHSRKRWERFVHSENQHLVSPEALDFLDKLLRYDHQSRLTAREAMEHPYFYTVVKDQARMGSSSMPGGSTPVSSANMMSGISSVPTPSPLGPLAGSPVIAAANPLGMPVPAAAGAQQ

For the compound `Cc1c(C=O)c(O)n2c(nc3ccccc32)c1C#N`, the Ki (usually a measure of affinity in units of concentration, obtained from inhibition or displacement) in experiment [1] is > 3980 nM (inactive); at Ephrin type-A receptor 2, > 3160 nM (inactive); in experiment [2], 100 nM (active); in experiment [3], 1580 nM (active); in [4] it was 1580 nM (active); in [5], > 10000 nM (inactive). The Ki in experiment [6] is > 2510 nM (inactive); in [7], > 1580 nM (inactive); in [8], > 2000 nM (inactive); in experiment [9] it was 3980 nM (active); in experiment [10], 2000 nM (active); in experiment [11] it was > 3160 nM (inactive). Moreover, the Ki in [12] is > 6310 nM (inactive); in experiment [13] it was 794 nM (active); in experiment [14] it was > 7940 nM (inactive); in [15], 63.1 nM (active); in [16], > 2510 nM (inactive); in [17] it was 794 nM (active). The Ki in [18] was > 10000 nM (inactive); in experiment [19], > 10000 nM (inactive); in experiment [20] it was > 7940 nM (inactive); in experiment [21], > 10000 nM (inactive).

As for `Cc1n[nH]c2cnc(-c3cncc(OCC(N)Cc4cccc(C(F)(F)F)c4)c3)cc12` (centres undefined), the Ki was 200 nM (active) in [1]; > 3160 nM (inactive) on Ephrin type-A receptor 2; 1260 nM (active) in [2]; > 1580 nM (inactive) in [3]; > 2000 nM (inactive) in [4]; > 10000 nM (inactive) in experiment [5]. For the same compound, the Ki in experiment [6] is > 2510 nM (inactive); in experiment [7] it was > 1580 nM (inactive); in [8], > 2000 nM (inactive); in experiment [9] it was 398 nM (active); in experiment [10], 316 nM (active); in experiment [11], > 3160 nM (inactive). The Ki in experiment [12] was 63.1 nM (active); in experiment [13], 3160 nM (active); in experiment [14] it was 501 nM (active); in experiment [15], 794 nM (active); in experiment [16], > 2510 nM (inactive); in experiment [17], 2510 nM (active). Moreover, the Ki in experiment [18] is 12.6 nM (active); in experiment [19], 63.1 nM (active); in experiment [20] it was 1580 nM (active); in experiment [21], 251 nM (active).

The values are drawn from ChEMBL document CHEMBL1201862, “PubChem BioAssay data set” (2004).
